Test results taken from patent publication US9902702B2, “Spirocycloheptanes as inhibitors of rock” (BRISTOL-MYERS SQUIBB COMPANY, priority 2014, dated 2018).

Target: ROCK2 (Homo sapiens, UniProt O75116)
Test: ROCK assay: phosphorylation of FITC peptide substrate, LABCHIP 3000 mobility shift
Format: biochemical
Details: 5 μM ATP, 1.5 μM peptide substrate; read-out: ROCK2 Activity (ROCK IC50 range)
Outline: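 IC50 values come from curve-fitting percent kinase inhibition across a compound dilution series. The reaction is started with Rho kinase variant in HEPES pH 7.5 buffer with MgCl2, Brij-35 and DTT, with 5 μM ATP, 1.5 μM FITC-labelled peptide and under 2% DMSO. After EDTA quench, product and substrate are separated by microfluidic mobility shift.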

Sequence of ROCK2 (O75116 whole entry, species assumed): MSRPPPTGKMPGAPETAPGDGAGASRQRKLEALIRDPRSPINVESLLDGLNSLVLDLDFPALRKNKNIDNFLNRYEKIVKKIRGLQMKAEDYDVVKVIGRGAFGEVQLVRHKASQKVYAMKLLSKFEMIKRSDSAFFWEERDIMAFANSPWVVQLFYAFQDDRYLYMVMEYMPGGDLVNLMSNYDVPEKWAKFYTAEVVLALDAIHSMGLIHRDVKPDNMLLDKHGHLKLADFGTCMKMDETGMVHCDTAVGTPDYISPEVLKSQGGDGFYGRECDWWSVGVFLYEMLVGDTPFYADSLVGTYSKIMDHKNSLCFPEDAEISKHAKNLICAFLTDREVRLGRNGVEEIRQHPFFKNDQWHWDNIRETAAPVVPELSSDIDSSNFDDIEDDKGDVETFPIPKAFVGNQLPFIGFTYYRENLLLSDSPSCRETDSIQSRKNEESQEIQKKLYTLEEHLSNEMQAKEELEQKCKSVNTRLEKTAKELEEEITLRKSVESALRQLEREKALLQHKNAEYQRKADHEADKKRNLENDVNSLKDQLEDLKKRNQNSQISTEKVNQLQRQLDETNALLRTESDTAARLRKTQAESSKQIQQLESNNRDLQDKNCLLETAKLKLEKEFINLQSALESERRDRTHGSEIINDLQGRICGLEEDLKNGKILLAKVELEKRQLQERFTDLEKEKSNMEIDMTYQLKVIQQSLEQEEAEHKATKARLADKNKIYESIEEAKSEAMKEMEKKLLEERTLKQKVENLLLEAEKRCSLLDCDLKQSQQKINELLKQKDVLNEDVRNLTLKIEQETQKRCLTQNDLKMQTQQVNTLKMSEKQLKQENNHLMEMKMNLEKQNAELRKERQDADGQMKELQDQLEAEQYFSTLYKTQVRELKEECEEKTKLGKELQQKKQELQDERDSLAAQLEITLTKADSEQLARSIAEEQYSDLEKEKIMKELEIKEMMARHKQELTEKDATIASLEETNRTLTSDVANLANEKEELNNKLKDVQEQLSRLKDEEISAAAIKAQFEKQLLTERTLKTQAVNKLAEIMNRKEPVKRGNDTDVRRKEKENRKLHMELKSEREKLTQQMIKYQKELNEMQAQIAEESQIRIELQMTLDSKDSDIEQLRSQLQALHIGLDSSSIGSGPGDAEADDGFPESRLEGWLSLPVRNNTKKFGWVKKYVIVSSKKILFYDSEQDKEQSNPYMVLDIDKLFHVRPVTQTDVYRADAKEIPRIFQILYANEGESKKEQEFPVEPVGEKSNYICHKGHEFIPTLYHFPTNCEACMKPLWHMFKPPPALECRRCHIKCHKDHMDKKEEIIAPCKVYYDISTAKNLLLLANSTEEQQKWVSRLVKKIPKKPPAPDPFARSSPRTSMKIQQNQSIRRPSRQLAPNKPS

IC50 [nM]	Compound
2.01 to 5	Cn1ccc(-c2ccc3c(C(=O)NC4CC5(C4)CC(c4n[nH]c(=O)c6ccccc46)C5)nn(CC(C)(C)O)c3c2)n1 (stereo not drawn) [Example 145, 1-(2-hydroxy-2-methylpropyl)-6-(1-methyl-1H-pyrazol-3-yl)-N-((αR)-6-(4-oxo-3,4-dihydrophthalazin-1-yl)spiro[3.3]heptan-2-yl)-1H-indazole-3-carboxamide]
0.2 to 2	O=C(NC1CC2(C1)CC(c1n[nH]c(=O)c3ccccc13)C2)c1cnn2cc(N3CCCC3)ccc12 [Example 87, N-((aR)-6-(4-oxo-3,4-dihydrophthalazin-1-yl)spiro[3.3]heptan-2-yl)-6-(pyrrolidin-1-yl)pyrazolo[1,5-a]pyridine-3-carboxamide]
2.01 to 5	[H][C@]1(c2n[nH]c(=O)c3ccccc32)C[C@]2(C[C@@H](NC(=O)c3cnc4cc(OCCN5CCCC5)ccn34)C2)C1 (stereo partly drawn) [Example 401, N-((aR)-6-(4-oxo-3,4-dihydrophthalazin-1-yl)spiro[3.3]heptan-2-yl)-7-(2-(pyrrolidin-1-yl)ethoxy)imidazo[1,2-a]pyridine-3-carboxamide]
5.1 to 15	[H][C@]1(c2n[nH]c(=O)c3ccccc32)C[C@]2(C[C@@H](NC(=O)c3cc4cccnc4[nH]3)C2)C1 (stereo partly drawn) [Example 312, N-((aR)-6-(4-oxo-3,4-dihydrophthalazin-1-yl)spiro[3.3]heptan-2-yl)-1H-pyrrolo[2,3-b]pyridine-2-carboxamide]
100 to 2100	Cc1cc(NC(=O)C2CC3(C2)CC(c2n[nH]c(=O)c4ccccc24)C3)no1 (stereo not drawn) [Example 49, N-(5-methyl-1,2-oxazol-3-yl)-6-(4-oxo-3,4-dihydrophthalazin-1-yl)spiro[3.3]heptane-2-carboxamide]
2.01 to 5	O=C(NC1CC2(C1)CC(c1n[nH]c(=O)c3ccccc13)C2)c1cn2c(n1)sc1ccccc12 [Example 93, N-((aR)-6-(4-oxo-3,4-dihydrophthalazin-1-yl)spiro[3.3]heptan-2-yl)benzo[d]imidazo[2,1-b]thiazole-2-carboxamide]
5.1 to 15	Cc1nc(N2CCC(F)C2)sc1C(=O)NC1CC2(C1)CC(c1n[nH]c(=O)c3ccccc13)C2 [Example 37, 2-[(3R)-3-fluoropyrrolidin-1-yl]-4-methyl-N-[(aR)-6-(4-oxo-3,4-dihydrophthalazin-1-yl)spiro[3.3]heptan-2-yl]-1,3-thiazole-5-carboxamide]
15.1 to 100	[H][C@]1(c2n[nH]c(=O)c3ccccc32)C[C@]2(C[C@@H](NC(=O)c3ccc(Br)cn3)C2)C1 (stereo partly drawn) [Example 375, 5-bromo-N-((aR)-6-(4-oxo-3,4-dihydrophthalazin-1-yl)spiro[3.3]heptan-2-yl)picolinamide]
2.01 to 5	[H][C@]1(c2n[nH]c(=O)c3ccccc32)C[C@]2(C[C@@H](NC(=O)c3cnc4cc(C)ccn34)C2)C1 (stereo partly drawn) [Example 412, 7-methyl-N-((aR)-6-(4-oxo-3,4-dihydrophthalazin-1-yl)spiro[3.3]heptan-2-yl)imidazo[1,2-a]pyridine-3-carboxamide]
15.1 to 100	[H][C@]1(c2n[nH]c(=O)c3ccccc32)C[C@]2(C[C@@H](NC(=O)c3ccc(-c4noc(C)n4)cc3)C2)C1 (stereo partly drawn) [Example 360, 4-(5-methyl-1,2,4-oxadiazol-3-yl)-N-((aR)-6-(4-oxo-3,4-dihydrophthalazin-1-yl)spiro[3.3]heptan-2-yl)benzamide]
5.1 to 15	Cc1nc(N2CCCC2)sc1C(=O)NC1CC2(C1)CC(c1n[nH]c(=O)c3ccccc13)C2 [Example 35, 4-methyl-N-[(aR)-6-(4-oxo-3,4-dihydrophthalazin-1-yl)spiro[3.3]heptan-2-yl]-2-(pyrrolidin-1-yl)-1,3-thiazole-5-carboxamide]
2.01 to 5	Cn1nc(C(=O)NC2CC3(C2)CC(c2n[nH]c(=O)c4ccccc24)C3)c2ccccc21 (stereo not drawn) [Example 5, 1-methyl-N-[6-(4-oxo-3,4-dihydrophthalazin-1-yl)spiro[3.3]heptan-2-yl]-1H-indazole-3-carboxamide]
